Assay results reported in patent publication US8748461B2, “Metalloenzyme inhibitor compounds” (Viamet Pharmaceuticals, Inc., priority 2011, dated 2014).
Values after ≈ are worked out from the molar mass of the structure shown.

Tests used:
[1] = test system: Puccinia recondita tritici = Puccinia triticina; test: Fungicidal activity vs. leaf rust on wheat plants; assay type: in vivo; details: 50 ppm spray on wheat (Yuma), inoculated the following day, evaluated 7-9 days later; read-out: Puccinia Rating (% Disease Control @ 50 ppm)
Excerpt: D. Evaluation of Fungicidal Activity Vs. Leaf Rust (Causal Agent Puccinia recondita Tritici=Puccinia triticina; Bayer code PUCCRT). […] Each pot contained 3-8 seedlings. These plants were sprayed until wet with the formulated test compounds. The compounds were formulated at 50 ppm in 10 vol. % acetone plus 90 vol. % Triton X water (deionized water 99.99 wt %+0.01 wt % Triton X100), giving a “formulated test compound.” Formulated test compounds were applied to plants using a turn table sprayer fitted with two opposing air atomization nozzles which delivered approximately 1500 L/ha of spray volume. On the following day, the leaves were inoculated with an aqueous spore suspension of Puccinia recondita tritici and the plants were kept in high humidity overnight to permit spores to germinate and infect the leaf. The plants were then transferred to a greenhouse until disease developed on untreated control plants. Disease severity was evaluated 7-9 days later, depending on the speed of disease development. In each case of Table 3, the Puccinia rating scale is as follows: […]

[2] = test system: Septoria tritici (ATCC 26517); test: Minimum Inhibitory Concentration (MIC) vs. Septoria tritici; assay type: cell-based; details: Zymoseptoria tritici, ATCC26517, 168 h; 50% reduction in growth of S. tritici; 22° C., seven days; read-out: Septoria Rating (MIC)
Method: C. Minimum Inhibitory Concentration (MIC) vs. Septoria tritici Compounds were assessed for their ability to inhibit the growth of a common strain of the fungal plant pathogen Septoria tritici (ATCC 26517) using a procedure based on a Clinical and Laboratory Standards Institute (CLSI) microdilution assay protocol for filamentous fungi. Stock solutions of the test compounds and standards were prepared in DMSO at 6400 μg/mL. Each stock solution was used to prepare a 2-fold dilution series ranging from 16 to 0.016 μg/mL (total of 11 compound concentrations) in RPMI-1640 (Roswell Park Memorial Institute) medium containing 3-(N-morpholino)propanesulfonic acid (MOPS) buffer and 2% DMSO. A 100 μL aliquot of the dilutions was added to columns 1 (16 μg/mL compound) through 11 (0.016 μg/mL compound) of a 96-well microtiter plate. This format was replicated in a second row of the microtiter plate. Thus, each microtiter plate could include 11 concentrations of four test or control compounds replicated twice. A 100 μL aliquot of RPMI-1640/MOPS/2% DMSO medium was added to column 12 (no compound control) of the microtiter plate. A fresh culture of S. tritici was used to prepare a solution of approximately 5×10^4 colony-forming units per milliliter (cfu/mL) in RPMI/MOPS medium without DMSO. A 100 μL aliquot of this solution was added to all 96 wells in the microtiter plate. […] The assay plates were incubated at 22° C. for seven days in the dark without shaking. […] In each case of Table 3, the Septoria rating scale is as follows: […]

Row | Structure (SMILES) | MIC [2] | pest or weed control at 50 ppm [1]
1 | N#Cc1cc(Oc2ccc(C(F)(F)C(O)(Cn3cnnn3)c3ccc(F)cc3F)nc2)ccn1 (stereo not drawn) [Compound 96, 4-((6-(2-(2,4-difluorophenyl)-1,1-difluoro-2-hydroxy-3-(1H-tetrazol-1-yl)propyl)pyridin-3-yl)oxy)picolinonitrile] | 1.5 to 4 µg/mL (≈ 3.18 to 8.49 µM) | 60 to 79%
2 | OC(Cn1cnnn1)(c1ccc(F)cc1F)C(F)(F)c1ccc(OCc2ccc(C(F)(F)F)cn2)cn1 (stereo not drawn) [Compound 114, 2-(2,4-difluorophenyl)-1,1-difluoro-3-(1H-tetrazol-1-yl)-1-(5-((5-(trifluoromethyl)pyridin-2-yl)methoxy)pyridin-2-yl)propan-2-ol] | ≤ 0.5 µg/mL | 80 to 100%
3 | OC(Cn1cnnn1)(c1ccc(F)cc1F)C(F)(F)c1ccc(OCC(F)(F)F)cn1 (stereo not drawn) [Compound 12, 2-(2,4-Difluorophenyl)-1,1-difluoro-3-(1H-tetrazol-1-yl)-1-(5-(2,2,2-trifluoroethoxy)pyridin-2-yl)propan-2-ol] | ≤ 0.5 µg/mL | 80 to 100%
4 | OC(Cn1cnnn1)(c1ccc(F)cc1F)C(F)(F)c1ccc(OCC2CC2)cn1 (stereo not drawn) [Compound 39, 1-(5-(Cyclopropylmethoxy)pyridin-2-yl)-2-(2,4-difluorophenyl)-1,1-difluoro-3-(1H-tetrazol-1-yl)propan-2-ol] | ≤ 0.5 µg/mL | 80 to 100%
5 | OC(Cn1cnnn1)(c1ccc(F)cc1F)C(F)(F)c1ccc(Oc2ncc(C(F)(F)F)cc2F)cn1 (stereo not drawn) [Compound 104, 2-(2,4-difluorophenyl)-1,1-difluoro-1-(5-((3-fluoro-5-(trifluoromethyl)pyridin-2-yl)oxy)pyridin-2-yl)-3-(1H-tetrazol-1-yl)propan-2-ol] | ≤ 0.5 µg/mL | 80 to 100%
6 | N#Cc1ccc(COc2ccc(C(F)(F)C(O)(Cn3ncnn3)c3ccc(F)cc3F)nc2)c(F)c1 (stereo not drawn) [Compound 58, 4-(((6-(2-(2,4-Difluorophenyl)-1,1-difluoro-2-hydroxy-3-(2H-tetrazol-2-yl)propyl)pyridin-3-yl)oxy)methyl)-3-fluorobenzonitrile] | 1.5 to 4 µg/mL (≈ 2.99 to 7.96 µM) | –
7 | OC(Cn1cnnn1)(c1ccc(F)cc1F)C(F)(F)c1ccc(Oc2nc3cc(Cl)ccc3s2)cn1 (stereo not drawn) [Compound 109, 1-(5-((5-chlorobenzo[d]thiazol-2-yl)oxy)pyridin-2-yl)-2-(2,4-difluorophenyl)-1,1-difluoro-3-(1H-tetrazol-1-yl)propan-2-ol] | ≤ 0.5 µg/mL | –
8 | CC#CCOc1ccc(C(F)(F)C(O)(Cn2ncnn2)c2ccc(F)cc2F)nc1 (stereo not drawn) [Compound 33, 1-(5-(But-2-yn-1-yloxy)pyridin-2-yl)-2-(2,4-difluorophenyl)-1,1-difluoro-3-(2H-tetrazol-2-yl)propan-2-ol] | > 4 µg/mL | –
9 | C=COc1ccc(C(F)(F)C(O)(Cn2cnnn2)c2ccc(F)cc2F)nc1 (stereo not drawn) [Compound 14, 2-(2,4-Difluorophenyl)-1,1-difluoro-3-(1H-tetrazol-1-yl)-1-(5-(vinyloxy)pyridin-2-yl)propan-2-ol] | 1.5 to 4 µg/mL (≈ 3.79 to 10.1 µM) | –
10 | N#Cc1ccc(Oc2ccc(C(F)(F)C(O)(Cn3ncnn3)c3ccc(F)cc3F)nc2)c(F)c1 (stereo not drawn) [Compound 90, 4-((6-(2-(2,4-Difluorophenyl)-1,1-difluoro-2-hydroxy-3-(2H-tetrazol-2-yl)propyl)pyridin-3-yl)oxy)-3-fluorobenzonitrile] | 1.5 to 4 µg/mL (≈ 3.07 to 8.19 µM) | –
11 | OC(Cn1ncnn1)(c1ccc(F)cc1F)C(F)(F)c1ccc(OCc2ccccc2)cn1 (stereo not drawn) [Compound 31, 1-(5-(Benzyloxy)pyridin-2-yl)-2-(2,4-difluorophenyl)-1,1-difluoro-3-(2H-tetrazol-2-yl)propan-2-ol] | > 4 µg/mL | –
12 | N#Cc1ccc(COc2ccc(C(F)(F)C(O)(Cn3ncnn3)c3ccc(F)cc3F)nc2)nc1 (stereo not drawn) [Compound 51, 6-(((6-(2-(2,4-Difluorophenyl)-1,1-difluoro-2-hydroxy-3-(2H-tetrazol-2-yl)propyl)pyridin-3-yl)oxy)methyl)nicotinonitrile] | > 4 µg/mL | –
13 | N#Cc1ccc(Oc2ccc(C(F)(F)C(O)(Cn3ncnn3)c3ccc(Cl)cc3F)nc2)cc1F (stereo not drawn) [Compound 82, 4-((6-(2-(4-Chloro-2-fluorophenyl)-1,1-difluoro-2-hydroxy-3-(2H-tetrazol-2-yl)propyl)pyridin-3-yl)oxy)-2-fluorobenzonitrile] | > 4 µg/mL | –

More lines, main results first:

Row | MIC [2] | Structure (SMILES) | pest or weed control at 50 ppm [1]
14 | ≤ 0.5 µg/mL | OC(Cn1cnnn1)(c1ccc(F)cc1F)C(F)(F)c1ccc(Oc2ncc(Cl)cn2)cn1 (stereo not drawn) [Compound 98, 1-(5-((5-chloropyrimidin-2-yl)oxy)pyridin-2-yl)-2-(2,4-difluorophenyl)-1,1-difluoro-3-(1H-tetrazol-1-yl)propan-2-ol] | 80 to 100%
15 | ≤ 0.5 µg/mL | N#Cc1ccc(COc2ccc(C(F)(F)C(O)(Cn3cnnn3)c3ccc(F)cc3F)nc2)nc1 (stereo not drawn) [Compound 50, 6-(((6-(2-(2,4-Difluorophenyl)-1,1-difluoro-2-hydroxy-3-(1H-tetrazol-1-yl)propyl)pyridin-3-yl)oxy)methyl)nicotinonitrile] | 80 to 100%
16 | ≤ 0.5 µg/mL | OC(Cn1cnnn1)(c1ccc(F)cc1F)C(F)(F)c1ccc(OCc2cccc(F)c2F)cn1 (stereo not drawn) [Compound 23, 1-(5-((2,3-Difluorobenzyl)oxy)pyridin-2-yl)-2-(2,4-difluorophenyl)-1,1-difluoro-3-(1H-tetrazol-1-yl)propan-2-ol] | 80 to 100%
17 | ≤ 0.5 µg/mL | COc1cccc(Oc2ccc(C(F)(F)C(O)(Cn3cnnn3)c3ccc(F)cc3F)nc2)c1 (stereo not drawn) [Compound 85, 2-(2,4-Difluorophenyl)-1,1-difluoro-1-(5-(3-methoxyphenoxy)pyridin-2-yl)-3-(1H-tetrazol-1-yl)propan-2-ol] | 80 to 100%
18 | ≤ 0.5 µg/mL | OC(Cn1cnnn1)(c1ccc(F)cc1F)C(F)(F)c1ccc(Oc2ncc(C(F)(F)F)cn2)cn1 (stereo not drawn) [Compound 105, 2-(2,4-difluorophenyl)-1,1-difluoro-3-(1H-tetrazol-1-yl)-1-(5-((5-(trifluoromethyl)pyrimidin-2-yl)oxy)pyridin-2-yl)propan-2-ol] | 80 to 100%
19 | ≤ 0.5 µg/mL | OC(Cn1cnnn1)(c1ccc(F)cc1F)C(F)(F)c1ccc(OCC(F)c2ccccc2)cn1 (stereo not drawn) [Compound 123, 2-(2,4-difluorophenyl)-1,1-difluoro-1-(5-(2-fluoro-2-phenylethoxy)pyridin-2-yl)-3-(1H-tetrazol-1-yl)propan-2-ol] | 80 to 100%
20 | ≤ 0.5 µg/mL | OC(Cn1cnnn1)(c1ccc(F)cc1F)C(F)(F)c1ccc(Oc2ncc(Br)cn2)cn1 (stereo not drawn) [Compound 99, 1-(5-((5-bromopyrimidin-2-yl)oxy)pyridin-2-yl)-2-(2,4-difluorophenyl)-1,1-difluoro-3-(1H-tetrazol-1-yl)propan-2-ol] | 80 to 100%
21 | ≤ 0.5 µg/mL | N#Cc1ccc(Oc2ccc(C(F)(F)C(O)(Cn3cnnn3)c3ccc(Cl)cc3F)nc2)cc1 (stereo not drawn) [Compound 79, 4-((6-(2-(4-Chloro-2-fluorophenyl)-1,1-difluoro-2-hydroxy-3-(1H-tetrazol-1-yl)propyl)pyridin-3-yl)oxy)benzonitrile] | 80 to 100%
22 | ≤ 0.5 µg/mL | OC(Cn1cnnn1)(c1ccc(F)cc1F)C(F)(F)c1ccc(Oc2ncc(C(F)(F)F)cc2Cl)cn1 (stereo not drawn) [Compound 92, 1-(5-((3-chloro-5-(trifluoromethyl)pyridin-2-yl)oxy)pyridin-2-yl)-2-(2,4-difluorophenyl)-1,1-difluoro-3-(1H-tetrazol-1-yl)propan-2-ol] | 80 to 100%
23 | ≤ 0.5 µg/mL | OC(Cn1cnnn1)(c1ccc(Cl)cc1F)C(F)(F)c1ccc(OCC(F)(F)F)cn1 (stereo not drawn) [Compound 71, 2-(4-Chloro-2-fluorophenyl)-1,1-difluoro-3-(1H-tetrazol-1-yl)-1-(5-(2,2,2-trifluoroethoxy)pyridin-2-yl)propan-2-ol] | 80 to 100%
24 | ≤ 0.5 µg/mL | N#Cc1ccc(CSc2ccc(C(F)(F)C(O)(Cn3cnnn3)c3ccc(F)cc3F)nc2)c(F)c1 (stereo not drawn) [Compound 15, 4-(((6-(2-(2,4-Difluorophenyl)-1,1-difluoro-2-hydroxy-3-(1H-tetrazol-1-yl)propyl)pyridin-3-yl)thio)methyl)-3-fluorobenzonitrile] | 40 to 59%
25 | ≤ 0.5 µg/mL | N#Cc1ccc(Oc2ccc(C(F)(F)C(O)(Cn3cnnn3)c3ccc(F)cc3F)nc2)nc1 (stereo not drawn) [Compound 93, 6-((6-(2-(2,4-difluorophenyl)-1,1-difluoro-2-hydroxy-3-(1H-tetrazol-1-yl)propyl)pyridin-3-yl)oxy)nicotinonitrile] | 80 to 100%
